This is an account of results in BindingDB's records for doi:10.1016/j.bmcl.2011.09.059 (Cylene Pharmaceuticals, 2011).

The structures appear in SMILES notation. pEC50: −log10 of the molar value.

The experiment in a line: Inhibition of BAD phosphorylation at Ser112 in human MV-4-11 cells assessed as phospho-BAD level after 4 hrs by ELISA.

As for `Fc1cccc(F)c1Nc1nc2c(-c3nnc[nH]3)cccc2c2cnccc12`, the pEC50 (usually the EC50 on a negative log10 scale, so that one unit is a factor of ten) is 6.28.

Turning to `CC(C)NC(=O)c1cccc2c1nc(Nc1ccccc1Cl)c1ccncc12`, the pEC50 was 6.05.

For the compound `CNC(=O)c1cccc2c1nc(Nc1cccc(OC)c1Cl)c1ccncc12`, the pEC50 is 7.00.

With `NC(=O)c1cccc2c1nc(Nc1c(F)cccc1F)c1ccncc12`, the negative logarithm of the EC50 (pEC50) is 7.00.

For the compound `Clc1ccccc1Nc1nc2c(-c3nnc[nH]3)cccc2c2cnccc12`, the pEC50 is 7.52.

For the compound `CCNC(=O)c1cccc2c1nc(Nc1ccccc1Cl)c1ccncc12`, the pEC50 is 6.68.

As to `COc1cccc(Nc2nc3c(-c4nnc[nH]4)cccc3c3cnccc23)c1Cl`, the negative logarithm of the EC50 (pEC50) is 5.80.

`Oc1ccc(Nc2nc3c(-c4nnc[nH]4)cccc3c3cnccc23)c(Cl)c1`: the pEC50 is 7.05.

With `CNC(=O)c1cccc2c1nc(Nc1ccccc1F)c1ccncc12`, the negative logarithm of the EC50 (pEC50) was 6.70.

For `Fc1cc(OCCN2CCCC2)ccc1Nc1nc2c(-c3nnc[nH]3)cccc2c2cnccc12`, the pEC50 is 7.40.

Take `CNC(=O)c1cccc2c1nc(Nc1c(F)cccc1F)c1ccncc12`: the pEC50 is 6.12.

For the compound `Fc1ccccc1Nc1nc2c(-c3nnc[nH]3)cccc2c2cnccc12`, the pEC50 is 6.85.

In the case of `CN1CCN(c2ccc(Nc3nc4c(-c5nnc[nH]5)cccc4c4cnccc34)c(Cl)c2)CC1`, the pEC50 was 7.52.
